One series deals with angiotensin II receptor. The following applies: cited from earlier work.
Series [1] addresses T1, ET receptors in human primary PASMC (Homo sapiens, UniProt P25101). The following applies: for Kb: ET-1 EC50–EC70.
The target in series [2] is T2, recombinant ETA receptor (Homo sapiens, UniProt P25101). The conditions noted are these: read-out: Kb CHO-ETA; 120 min antagonist pre-incubation; ET-1 EC50–EC70; from IC50 via Cheng-Prusoff; geometric mean n = 3–8.
The target of series [3] is T3, recombinant ETB receptor (Homo sapiens, UniProt P24530). The conditions noted are these: read-out: Kb CHO-ETB; 120 min antagonist pre-incubation; ET-1 EC50–EC70; from IC50 via Cheng-Prusoff; geometric mean n = 3–8.
T3 sequence (P24530 27-442): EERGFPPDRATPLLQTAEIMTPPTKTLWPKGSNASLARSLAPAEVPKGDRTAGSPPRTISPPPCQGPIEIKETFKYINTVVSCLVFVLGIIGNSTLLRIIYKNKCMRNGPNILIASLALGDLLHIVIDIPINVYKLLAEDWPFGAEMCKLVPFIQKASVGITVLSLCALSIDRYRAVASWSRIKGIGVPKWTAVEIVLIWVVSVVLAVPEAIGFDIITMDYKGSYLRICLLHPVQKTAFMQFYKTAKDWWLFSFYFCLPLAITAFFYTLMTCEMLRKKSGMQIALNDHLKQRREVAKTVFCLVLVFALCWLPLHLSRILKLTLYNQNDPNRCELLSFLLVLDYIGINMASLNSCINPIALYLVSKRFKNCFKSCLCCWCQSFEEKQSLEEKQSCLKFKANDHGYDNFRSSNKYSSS
The target in series [4] is T1, ET receptors in human primary PASMC. The series can be described thus: cell-based. The conditions noted are these: ET-1 EC50–EC70.
In series [5] the target is T2, recombinant ETA receptor. Description: cell-based.
In series [6] the target is T1, ET receptors in human primary PASMC. Description: cell-based. The conditions noted are these: 120 min pre-incubation.
The target is the same in series [7]. The series can be described thus: cell-based. The conditions noted are these: 120 min pre-incubation. This is another data set of the same source.
Series [8] shares this target. The following applies: for proportion of receptors dissociated from within the first 30 seconds: estimated assuming 1:1 correlation between signal and receptor occupancy; for ROt1/2: estimated from first calcium response phase at 1 µM ET-1; for proportion of ET-1-induced signal with surmountable mode of antagonism: first calcium response phase, peak, 1 µM ET-1.
Series [9] shares this target.
Series [10] has the same target. This is another data set of the same source.
The target of series [11] is T3, recombinant ETB receptor. The series can be described thus: cell-based.
The test system of another series is P2Y12. The following applies: cited from earlier work.
[12] abbreviates: Kb 10 min, 10 min antagonist pre-incubation, geometric mean n = 6.
Setting [13] is: Kb PASMC, Table 1, 120 min antagonist pre-incubation, from IC50 via Cheng-Prusoff, geometric mean n = 3–8.
Where [14] appears, read: Kb1 (first calcium response phase), peak fluorescence, IC50 at 8 nM ET-1 via Cheng-Prusoff.
Where [15] appears, read: Kb2 (second sustained calcium response phase), AUC 3–23 min, IC50 at […] ET-1 via Cheng-Prusoff.
Where [16] appears, read: Kb IP1 accumulation, 20 min ET-1 stimulation, IC50 at […] ET-1 via Cheng-Prusoff, n = 4.
[17] abbreviates: Schild Kb IP1 accumulation, 90 min ET-1 stimulation, Gaddum/Schild regression, n = 3.
The mark [18] stands for this setting: Kb 120 min, 120 min antagonist pre-incubation (steady state), geometric mean n = 6.

The structures appear in SMILES notation. Like-named read-outs stand apart in the source and are kept apart here. Square brackets hold non-standard residues; d marks the D form. Peptide text beside a SMILES is read from it.

T2 sequence (P25101 21-427): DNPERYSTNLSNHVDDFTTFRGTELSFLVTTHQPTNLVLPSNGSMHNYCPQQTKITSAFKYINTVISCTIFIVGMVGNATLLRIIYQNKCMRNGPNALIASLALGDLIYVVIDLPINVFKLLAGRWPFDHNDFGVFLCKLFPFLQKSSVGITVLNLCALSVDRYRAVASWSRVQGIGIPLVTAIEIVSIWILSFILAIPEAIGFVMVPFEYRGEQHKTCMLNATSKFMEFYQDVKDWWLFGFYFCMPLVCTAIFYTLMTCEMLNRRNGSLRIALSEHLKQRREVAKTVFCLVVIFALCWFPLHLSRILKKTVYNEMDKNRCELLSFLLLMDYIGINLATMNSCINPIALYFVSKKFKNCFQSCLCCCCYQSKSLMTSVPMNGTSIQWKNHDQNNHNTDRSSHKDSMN
T1 sequence (P25101 21-427): as above

As to `CCCCc1nc(Cl)c(CO)n1Cc1ccc(-c2ccccc2-c2nn[nH]n2)cc1` [losartan], the “shorter ROt1/2 compared to candesartan and olmesartan” value in the series on angiotensin II receptor was 15–25 fold.
For `CCCC[C@@H](NC(=O)[C@@H](Cc1cn(C(=O)OC)c2ccccc12)NC(=O)[C@H](CC(C)(C)C)NC(=O)N1[C@H](C)CCC[C@@H]1C)C(=O)O` [BQ-788], in series [1] (Kb 10 min versus 120 min pre-incubation (fold increase in potency)), the Kb ratio is 1.0. For the same compound, the Kb in [1] (read-out: Kb 10 min, 10 min antagonist pre-incubation, geometric mean n = 6) is 121 nM; in series [1] (read-out: Kb 120 min, 120 min antagonist pre-incubation (steady state), geometric mean n = 6) it was 117 nM; in [1] (read-out: Kb PASMC, Table 1, 120 min antagonist pre-incubation, from IC50 via Cheng-Prusoff, geometric mean n = 3–8), 117 nM; on recombinant ETA receptor [2], 277 nM; at recombinant ETB receptor [3] it was 0.09 nM.
Turning to `CC(C)C[C@@H]1NC(=O)[C@@H](C(C)C)NC(=O)[C@@H]2CCCN2C(=O)[C@@H](CC(=O)O)NC(=O)[C@@H](Cc2c[nH]c3ccccc23)NC1=O` [BQ-123] (cyclo(L[dW][dD]P[dV])), the Kb in [4] (setting [12]) was determined as 0.61 nM; in series [4] (setting [13]), 0.62 nM; at recombinant ETA receptor [5] it was 9.4 nM.
Consider `COC(c1ccccc1)(c1ccccc1)[C@H](Oc1nc(C)cc(C)n1)C(=O)O` [ambrisentan], for which the Ki (as a rule, a measure of affinity in units of concentration, obtained from inhibition or displacement) in series [6] (setting [14]) was determined as 0.27 nM; in series [6] (setting [15]), 0.14 nM. In addition, the Kb in [7] (setting [16]) amounted to 1.1 nM; in series [7] (setting [17]), 1.6 nM; in series [4] (setting [12]), 0.11 nM; in [4] (setting [18]), 0.12 nM. Further, the “proportion of receptors dissociated from within the first 30 seconds” value in series [8] is given as ~30%. In addition, the ROt1/2 in series [8] was < 1 min. Besides, in [8], the “proportion of ET-1-induced signal with surmountable mode of antagonism” value (“proportion of ET-1-induced signal” below) was ~30%. In addition, in series [9], the “receptor occupancy half-life (ROt1/2)” value turned out to be 0.667 min. The results for the “mode of antagonism, IP1 accumulation” value in [10] (20 min ET-1 stimulation) and in series [10] (90 min ET-1 stimulation) were “surmountable” and “surmountable antagonism”, respectively.
For `Cc1cc2c(cc1CC(=O)c1sccc1S(=O)(=O)Nc1onc(C)c1Cl)OCO2` [sitaxentan], the Kb at recombinant ETB receptor [11] is 4470 nM; in series [4] (setting [12]) it was 2.9 nM; in series [4] (setting [18]) it was 4.2 nM; in series [4] (setting [13]), 4.2 nM; at recombinant ETA receptor [5], 20 nM.
Turning to `COc1nc(C)cnc1NS(=O)(=O)c1cccnc1-c1ccc(-c2nnco2)cc1` [zibotentan], the Kb at recombinant ETB receptor [11] stood at 4390 nM.
Turning to `CCCNS(=O)(=O)Nc1ncnc(OCCOc2ncc(Br)cn2)c1-c1ccc(Br)cc1` [macitentan], the Ki in series [6] (setting [14]) is 0.17 nM; in series [6] (setting [15]), 0.093 nM. In addition, the Kb in series [7] (setting [16]) was determined as 0.74 nM; in series [7] (setting [17]) it was 1.4 nM; in series [4] (setting [12]) it was 0.86 nM; in [4] (setting [18]) it was 0.14 nM. In [8] (AUC 3–23 min after ET-1), the “mode of antagonism, second sustained phase of calcium elevation” value is “insurmountable”. In addition, the “proportion of ET-1-induced signal” value in series [8] is recorded as “no surmountable behavior”. Further, the “increase in ROt1/2 compared to ambrisentan and bosentan” value in series [9] is given as ~15 fold. Moreover, the “receptor occupancy half-life (ROt1/2)” value in series [9] is given as 17 min. Further, the “loss in potency after washout” value in [9] (over 60 min after washout) was found to be 13 fold. Also, the “mode of antagonism, IP1 accumulation” value in [10] (20 min ET-1 stimulation) is reported as “insurmountable”; in series [10] (20 min ET-1 stimulation, listed as Macitentan) it was “insurmountable antagonism”; in series [10] (90 min ET-1 stimulation), “surmountable antagonism”.
Regarding `COc1ccccc1Oc1c(NS(=O)(=O)c2ccc(C(C)C)cn2)nc(-c2ccnc(-c3nnn[nH]3)c2)nc1OCCO` [tezosentan], the Kb at recombinant ETB receptor [11] was 0.5 nM; in series [4] (setting [12]) it was 0.042 nM; in series [4] (setting [18]) it was 0.01 nM; in series [4] (setting [13]), 0.01 nM; on recombinant ETA receptor [5] it was 0.26 nM.
For `COc1ccccc1Oc1c(NS(=O)(=O)c2ccc(C(C)(C)C)cc2)nc(-c2ncccn2)nc1OCCO` [bosentan], in series [8], the “proportion of receptors dissociated from within the first 30 seconds” value is given as ~50%, the ROt1/2 was < 1 min and the “proportion of ET-1-induced signal” value is reported as ~50%. The “mode of antagonism, IP1 accumulation” value in series [10] (20 min ET-1 stimulation) is “surmountable”. Moreover, in [10] (90 min ET-1 stimulation), the “mode of antagonism, IP1 accumulation” value is reported as “surmountable antagonism”.
Turning to `COC(=O)[C@H](c1ccccc1Cl)N1CCc2sccc2C1` [clopidogrel], in the series on P2Y12, the binding mode entry is “irreversible binding”.

The values are drawn from article PMC3471877 (PLoS ONE, 2012).
